Test results as given in patent US20160030498A1, “HERBAL COMPOSITIONS FOR TREATING PAIN AND SKIN DISORDERS” (RUPAK ENTERPRISES (P) LIMITED, priority 2013, published 2016).

How the values were obtained:
[1] = system: proliferative dermatological disorders; assay: Use in human subjects suffering from dermatological disorders; assay type: in vivo; settings: humans
Excerpt: Another embodiment of the present invention refers to method of use of a composition comprising of Acetyl-11-keto-beta-boswellic acid (BOSWELLIC ACID) and Bakuchiol for alleviation and management of skin rashes, itching, and boils resulting from skin proliferative disorders, specifically psoriasis, atopic dermatitis. For example, the method of use disclosed herein may be administered alongside steroidal therapy during the steroid dose tapering phase, followed by standalone administration of the combination provides complete remission of skin conditions, and is maintained that upon continuance of recommended dosage. In certain embodiments the skin disorder may be resulting from irritants, allergens, trigger, or autoimmune reasons, and the combination defined herein is effective in all of the above. The present invention includes the formulation of a Bakuchiol and BOSWELLIC ACID combination in an oral dosage form or, lotion, cream, ointment which can be applied topically.

LOX = LOX inhibition assay; assay type: biochemical

Compound	Remission of proliferative dermatological conditions [1]	IC50 (LOX)
3-o-Acetyl-11-keto-beta-boswellic acid	substantial remission	–
C=C[C@@](C)(/C=C/c1ccc(O)cc1)CCC=C(C)C [Bakuchiol]	–	3.1 µM
